Experimental data taken from PubChem BioAssay (NCI).
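The compound was tested at five concentrations on cells cultured in 96-well plates, with a 48-hour exposure period. GI50 is the concentration that inhibits growth by half. TGI denotes the concentration required for complete inhibition of growth.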

Key:
Assay in all cases: NCI anticancer screen, dose series, 48 h
CCRF-CEM leukemia = system: CCRF-CEM leukemia
UACC-62 melanoma = system: UACC-62 melanoma
MCF7 breast = system: MCF7 breast
SF-295 CNS = system: SF-295 CNS
NCI-H226 lung = system: NCI-H226 lung
HL-60(TB) leukemia = system: HL-60(TB) leukemia
RXF 393 renal = system: RXF 393 renal
T-47D breast = system: T-47D breast
SK-MEL-28 melanoma = system: SK-MEL-28 melanoma
SK-OV-3 ovarian = system: SK-OV-3 ovarian

| Compound | GI50 (CCRF-CEM leukemia) [µM] | TGI (CCRF-CEM leukemia) [µM] | GI50 (UACC-62 melanoma) [µM] | TGI (UACC-62 melanoma) [µM] | GI50 (MCF7 breast) [µM] | TGI (MCF7 breast) [µM] | GI50 (SF-295 CNS) [µM] | TGI (SF-295 CNS) [µM] | GI50 (NCI-H226 lung) [µM] | TGI (NCI-H226 lung) [µM] | GI50 (HL-60(TB) leukemia) [µM] | TGI (HL-60(TB) leukemia) [µM] | GI50 (RXF 393 renal) [µM] | TGI (RXF 393 renal) [µM] | GI50 (T-47D breast) [µM] | TGI (T-47D breast) [µM] | GI50 (SK-MEL-28 melanoma) [µM] | TGI (SK-MEL-28 melanoma) [µM] | GI50 (SK-OV-3 ovarian) [µM] | TGI (SK-OV-3 ovarian) [µM] |
| --- | --- | --- | --- | --- | --- | --- | --- | --- | --- | --- | --- | --- | --- | --- | --- | --- | --- | --- | --- | --- |
| CC1(C)CCC2(C(=O)OC3OC(CO)C(O)C(O)C3O)CC[C@]3(C)C(=CCC4C5(C)CC[C@H](OC6OC(C(=O)O)C(O)C(O)C6O)C(C)(C)C5CCC43C)C2C1 (stereo partly drawn) | 23.1 | > 50 | 0.887 | 1.92 | 1.6 | > 50 | 2.56 | > 50 | 1.49 | 6.31 | 1.22 | 3.45 | 1.65 | > 50 | 1.75 | 5.98 | 2.6 | 12.2 |  |  |
| COc1ccc(Cn2nc(-c3cc(OC)c(OC)c(OC)c3)c3c2CCc2cnoc2-3)cc1OC | 3.17 | > 100 | 3.78 | 56.5 | 3.45 | 18.3 |  |  | 6.85 | 56.1 | 0.113 | 2.28 | 1.63 | 9.29 | 4.16 | 39.9 | 10.3 | > 100 | 4.36 | 33 |
| C=C1C(=O)O[C@@H]2C1CC(=O)C(C)CC/C=C(\C)CCC[C@H](C)[C@H]2OC(C)=O (stereo partly drawn) | 2 | 4.75 | 11.6 | 24.5 | 4.81 | 35.6 | 19.8 | 36.2 | 15.1 | 30.5 |  |  | 7.9 | 24.4 | 20.4 | 58.5 | 11.8 | 25.3 | 17 | 34.1 |
| COc1cc(Cn2cc3c(c2)-c2oncc2CC3)cc(OC)c1OC | 0.0193 | 16.7 | 0.0362 | > 81.7 | 0.0324 | > 100 | 0.0185 | 0.059 | 0.256 | > 100 | < 0.0177 | 0.456 | 0.0255 | > 100 |  |  |  |  | 0.0402 | > 57.5 |
| COC12C=CC(CC1)c1c(O)ccc(O)c12 (stereo not drawn) |  | 65.1 |  | > 100 |  |  |  | > 100 |  | > 100 |  | 41.6 |  | > 100 |  |  |  | > 100 |  | > 100 |
| O=C(O)[C@@H]1C2CC([C@@H]1C(=O)O)[C@H](N1C(=O)CCC1=O)[C@@H]2Br (stereo partly drawn) |  | > 100 |  | > 100 |  |  |  | > 100 |  | > 100 |  | > 100 |  | > 100 |  | > 100 |  | > 100 |  | > 100 |
| CC(C)(C(=O)NN)c1ccccc1 |  | > 100 |  | > 100 |  | > 100 |  | > 100 |  |  |  | > 100 |  |  |  | > 100 |  | > 100 |  | > 100 |
| CCOC(=O)c1c2c(n(CC(C)C)c1C)-c1nc[nH]c1C(=O)C2=O | 4.78 | 16.7 |  |  | 16.3 | 29.9 | 19.2 | 35.9 | 15 | 28.5 | 0.388 | 2.82 | 13.9 | 26.8 | 3.3 | 14.3 | 19.3 | 33.4 | 22.4 | 37.3 |
